Some test systems named below: DU-145 prostate; HCC-2998 colon; NCI-H460 lung; SN12C renal; MDA-MB-231 breast; 786-0 renal; NCI-H522 lung; KM12 colon; SK-OV-3 ovarian; A498 renal.
Assay in all cases: NCI anticancer screen, dose series, 48 h

SMILES strings stand for the structures.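 Growth conditions: 96-well plates. Treatment: test compound, 48 hours, 5 concentrations. Analysis: linear interpolation between bracketing concentrations; unreached endpoints set to highest concentration. GI50 is the concentration that inhibits growth by half. TGI marks complete inhibition of growth.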

With `N#Cc1c(-c2ccc(Cl)cc2)n([O-])c2ccccc2[n+]1=O`, the GI50 with DU-145 prostate was 18.1 µM; with HCC-2998 colon it was 13.3 µM; in the test on NCI-H460 lung it was 18.5 µM; with SN12C renal it was 15.5 µM; in the test with MDA-MB-231 breast, 6.95 µM; in the test with 786-0 renal, 12.5 µM. In addition, the GI50 in the test on NCI-H522 lung is 14.7 µM; in the test with KM12 colon, 14.3 µM; with SK-OV-3 ovarian it was 24.8 µM. Further, the TGI was determined as 32.8 µM with DU-145 prostate; 26 µM in the test with HCC-2998 colon; 42.8 µM with NCI-H460 lung; 37.2 µM in the test with SN12C renal; 24.2 µM with MDA-MB-231 breast; 25 µM in the test with 786-0 renal. The TGI in the test on NCI-H522 lung was 38.5 µM; in the test on KM12 colon, 28.7 µM; with SK-OV-3 ovarian it was 72.3 µM.

Consider `Cn1c(N)c(N=Nc2ccc(S(N)(=O)=O)cc2)c(=O)n(C)c1=O`, for which the TGI with A498 renal, in the test on DU-145 prostate, in the test with NCI-H460 lung, in the test on SN12C renal, in the test on MDA-MB-231 breast and with 786-0 renal was greater than 100 µM each time. Moreover, the TGI in the test on NCI-H522 lung, in the test on KM12 colon and in the test on SK-OV-3 ovarian was greater than 100 µM in each case.

For `COC(=O)[C@@H](C)C[C@H](Cc1ccccc1)NC(=O)c1cccc([C@@H](C[C@H](C(C)C)N(C)C(=O)[C@@H](NC(=O)[C@H]2CCCCN2C)C(C)C)OC(C)=O)n1`, the GI50 in the test with DU-145 prostate is less than 0.00167 µM; in the test with HCC-2998 colon it was less than 0.00167 µM; with NCI-H460 lung it was less than 0.00167 µM; with SN12C renal it was 0.00266 µM; in the test on MDA-MB-231 breast it was 0.00236 µM; in the test on 786-0 renal it was 0.00583 µM. Also, the figures for the GI50 in the test on NCI-H522 lung, with KM12 colon and with SK-OV-3 ovarian were less than 0.00167 µM, less than 0.00167 µM and 0.00235 µM, respectively. Moreover, the TGI in the test on HCC-2998 colon was greater than 7.55 µM; in the test with NCI-H460 lung, greater than 16.7 µM; in the test with SN12C renal, greater than 16.7 µM; in the test with MDA-MB-231 breast, 3.21 µM; in the test with 786-0 renal, greater than 16.7 µM; with NCI-H522 lung it was 0.00263 µM. Moreover, the TGI in the test on KM12 colon and in the test with SK-OV-3 ovarian was greater than 16.7 µM each time.

On to `Nc1cc2[nH]c(=O)c3cc(Cl)ccc3c2cc1Cl`, for which the TGI with DU-145 prostate was 39.1 µM; in the test on HCC-2998 colon, greater than 100 µM; in the test with NCI-H460 lung, 18.8 µM; in the test on SN12C renal, greater than 100 µM; in the test with MDA-MB-231 breast, 68.6 µM; in the test on 786-0 renal, greater than 100 µM. Also, the TGI in the test on NCI-H522 lung was 33 µM; in the test with KM12 colon, greater than 100 µM; in the test with SK-OV-3 ovarian it was 15.8 µM.

Turning to `Oc1c(Br)cc(Br)c2cccnc12`, the GI50 with A498 renal is 2.03 µM; in the test with DU-145 prostate, 3.72 µM; in the test with HCC-2998 colon, 3.61 µM; in the test with NCI-H460 lung, 2.94 µM; in the test on SN12C renal it was 3.23 µM; in the test on MDA-MB-231 breast it was 4.43 µM. In addition, the GI50 was 2.52 µM with 786-0 renal, 4.17 µM in the test on KM12 colon and 3.99 µM in the test on SK-OV-3 ovarian. In addition, the TGI stood at 11.5 µM with A498 renal; 40.3 µM in the test on DU-145 prostate; 18.8 µM with HCC-2998 colon; 10.7 µM in the test on NCI-H460 lung; 35.2 µM in the test with SN12C renal; 28.9 µM with MDA-MB-231 breast. In addition, the TGI in the test on 786-0 renal is 5.91 µM; with KM12 colon, 23.4 µM; with SK-OV-3 ovarian, 21.1 µM.

As for `COc1ccc(C2CC(c3ccc(OC)c(OC)c3)=NN2C(=O)c2cc(OC)c(OC)c(OC)c2)cc1` (configuration not stated), the GI50 in the test with DU-145 prostate is 3.79 µM; in the test on HCC-2998 colon, 1.85 µM; in the test with NCI-H460 lung it was 3.54 µM; in the test with SN12C renal, 5.71 µM; in the test on MDA-MB-231 breast it was 3.09 µM; in the test with 786-0 renal, 2.71 µM. Further, the GI50 in the test with NCI-H522 lung was 0.56 µM; with KM12 colon, 2.31 µM; in the test on SK-OV-3 ovarian, 1.76 µM. Moreover, the TGI with DU-145 prostate was greater than 100 µM; in the test on HCC-2998 colon it was 4.77 µM; in the test with NCI-H460 lung, greater than 100 µM; in the test on SN12C renal, greater than 100 µM; in the test with MDA-MB-231 breast, greater than 100 µM; in the test on 786-0 renal, greater than 100 µM. For the same compound, the TGI in the test with KM12 colon was greater than 63.1 µM; in the test on SK-OV-3 ovarian it was greater than 100 µM.

Consider `CN(C)CCCn1c2c(c3ccc([N+](=O)[O-])cc3c1=O)C(=O)c1ccccc1-2`, for which the GI50 with DU-145 prostate is 5.61 µM; with HCC-2998 colon, 15.3 µM; with NCI-H460 lung, 2.69 µM; with SN12C renal it was 4.21 µM; with MDA-MB-231 breast it was 15.9 µM; in the test on 786-0 renal, 4.75 µM. Besides, the GI50 is 4.2 µM in the test with NCI-H522 lung, 28.4 µM in the test with KM12 colon and 28.1 µM in the test on SK-OV-3 ovarian. Also, the TGI with DU-145 prostate was found to be 29.8 µM; in the test with HCC-2998 colon, 41.7 µM; in the test with NCI-H460 lung, 19.4 µM; in the test on SN12C renal it was 24.5 µM; in the test on MDA-MB-231 breast it was 38.1 µM; with 786-0 renal it was 21.2 µM. For the same compound, the TGI in the test with NCI-H522 lung, in the test on KM12 colon and with SK-OV-3 ovarian was greater than 100 µM throughout.

As to `COc1ccc(C(=O)CC(Cl)=C(Cl)Cl)cc1`, the GI50 in the test with A498 renal was greater than 100 µM; in the test with DU-145 prostate, 31.5 µM; in the test on NCI-H460 lung it was greater than 100 µM; with SN12C renal it was 34.6 µM; in the test with MDA-MB-231 breast, 33.1 µM; in the test with 786-0 renal it was 21.7 µM. The values for the GI50 in the test on NCI-H522 lung, in the test with KM12 colon and in the test with SK-OV-3 ovarian were 34.3 µM, 71.2 µM and greater than 100 µM, respectively. The TGI with A498 renal was greater than 100 µM; in the test with DU-145 prostate, greater than 100 µM; with NCI-H460 lung, greater than 100 µM; in the test with SN12C renal, greater than 100 µM; in the test with MDA-MB-231 breast it was greater than 100 µM; in the test on 786-0 renal, 44.7 µM. Also, the TGI with NCI-H522 lung was 81.5 µM; in the test on KM12 colon, greater than 100 µM; in the test on SK-OV-3 ovarian, greater than 100 µM.

As for `CNCc1ccc(C)c(NC(=O)c2ccc(Nc3nc(-c4ccccc4)c4ccccc4n3)cc2)c1`, the GI50 is 1.53 µM in the test with A498 renal; 2.88 µM in the test with DU-145 prostate; 1.96 µM with HCC-2998 colon; 1.8 µM with NCI-H460 lung; 1.74 µM in the test with MDA-MB-231 breast; 1.76 µM in the test on 786-0 renal. In addition, the GI50 was 1.86 µM with NCI-H522 lung, 1.97 µM in the test on KM12 colon and 2.18 µM in the test on SK-OV-3 ovarian. The TGI is 3.04 µM in the test with A498 renal; 7.65 µM in the test on DU-145 prostate; 3.58 µM in the test with HCC-2998 colon; 3.38 µM in the test with NCI-H460 lung; 3.43 µM in the test on MDA-MB-231 breast; 3.3 µM in the test on 786-0 renal. The TGI stood at 3.57 µM in the test on NCI-H522 lung, 3.88 µM in the test on KM12 colon and 4.08 µM in the test with SK-OV-3 ovarian.
